≈ marks a conversion by molar mass, not a printed value. Where “and” joins values, the source holds several entries; their conditions need not be identical. Equal values may be shown once. Read-outs that look alike come from different tables or passages of the source.
Legend:
[1] = tested on: Enterococcus faecalis ATCC 11420; experiment: Broth dilution MIC/MBC, reference strain; type: cell-based
Method in brief: (§1)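 Inhibitory and cidal endpoints rely on a serial dilution method run in triplicate. Growth inhibition is scored after 18 h at 37 °C (5 × 10^5 cfu/mL, MHB2), and cidal values after transfer to TSA with 48 h further incubation.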

[2] = tested on: Escherichia coli ATCC 11229; experiment: Broth dilution MIC/MBC, reference strain; type: cell-based
Method in brief: as §1

[3] = tested on: Proteus vulgaris NCTC 4635; experiment: Broth dilution MIC/MBC, reference strain; type: cell-based
Method in brief: as §1

[4] = tested on: Pseudomonas aeruginosa ATCC 15442; experiment: Broth dilution MIC/MBC, reference strain; type: cell-based
Method in brief: as §1

[5] = tested on: Staphylococcus aureus ATCC 43300 (MRSA); experiment: Broth dilution MIC/MBC, reference strain; type: cell-based
Method in brief: as §1

[6] = tested on: Staphylococcus aureus ATCC 6538 (MSSA); experiment: Broth dilution MIC/MBC, reference strain; type: cell-based
Method in brief: as §1

[7] = tested on: Staphylococcus epidermidis PCM 2118; experiment: Broth dilution MIC/MBC, reference strain; type: cell-based
Method in brief: as §1

[8] = tested on: Candida albicans ATCC 10231; experiment: Broth dilution MIC/MFC, reference fungal strain; type: cell-based
Method in brief: as §1

[9] = tested on: HaCaT cell line (human keratinocyte); experiment: MTT cell viability assay; type: cell-based; details: MTT assay, 72 h incubation, mean ± SD, read-out: IC50 HaCaT
[10] = tested on: HCT-116 (colon cancer); experiment: MTT cell viability assay; type: cell-based; details: Homo sapiens, 72 h incubation, mean ± SD
Description: (§2) Analysis was performed using the MTT test and 72 h of incubation.
(§3) All chemicals were obtained from Sigma-Aldrich (St. Louis, MO, USA). The MCF-7 and HeLa cell lines were purchased from Cell Lines Services (Eppelheim, Germany), the HCT-116 cell line was purchased from ATCC (ATCC-No: CCL-247). Cells were cultured in Dulbecco’s modified Eagle’s medium (DMEM) supplemented with 10% fetal bovine serum, 2 mM glutamine, 100 units/mL penicillin, and 100 μg/mL streptomycin. Cultures were held in an incubator (Heraceus, HeraCell) in a humidified atmosphere with 5% CO2 at 37 °C.
(§4) Cell viability was evaluated using the MTT (3-(4,5-dimethylthiazol-2-yl)-2,5-diphenyltetrazolium bromide) assay. Stock solutions of the studied compounds were obtained in 100% DMSO. […] Cells at a density of 5 × 10^3 cells/well, seeded in 96-well plates, were treated for 72 h with the tested compounds in the concentration range 1–100 μM (1, 10, 25, 50 and 100 μM). After treatment, cells were incubated for 2 h with MTT (0.5 mg/mL) at 37 °C. Cells were lysed with DMSO and the absorbance of the formazan solution was measured at 550 nm with a plate reader (1420 multilabel counter, Victor, Jügesheim, Germany). Values are expressed as the mean ± SD of at least three independent experiments conducted in triplicate.

[11] = tested on: HeLa (cervical cancer); experiment: MTT cell viability assay; type: cell-based; details: Homo sapiens, 72 h incubation, mean ± SD
Description: as §2, §3, §4

[12] = tested on: MCF-7 (breast cancer); experiment: MTT cell viability assay; type: cell-based; details: Homo sapiens, MCF7, 72 h incubation, mean ± SD
Description: as §2, §3, §4

[13] = tested on: Gram-positive reference strains; experiment: Broth dilution MIC/MBC, summary over Gram-positive reference strains; type: cell-based; details: summary over the Gram-positive reference strains (Table 1)
Description: […]. The tests were carried out using a serial dilution method, allowing the determination of MIC (minimal concentration inhibiting bacterial growth), MBC (minimal bactericidal concentration), and MFC (minimal fungicidal concentration) values.
Antimicrobial activity was tested using the following reference strains: Staphylococcus aureus ATCC 6538 (MSSA), Staphylococcus aureus ATCC 43300 (MRSA), Staphylococcus epidermidis PCM 2118, Escherichia coli ATCC 11229, Pseudomonas aeruginosa ATCC 15442, Proteus vulgaris NCTC 4635, Enterococcus faecalis ATCC 11420, and Candida albicans ATCC 10231.
(§5) A broth dilution method was used to determine minimal inhibitory concentration (MIC) for tested compounds as recommended by Clinical Laboratory Standards Institute (CLSI) guidelines. Investigated compounds were diluted in Mueller Hinton Broth 2 (Sigma-Aldrich Co., St. Louis, MO, USA) in polypropylene 96-well plates and initial inoculum 5 × 10^5 cfu/mL were incubated at 37 °C for 18 h. MIC was taken as the lowest drug concentration at which an observable growth was inhibited. […] The loopful (10 µL) of the tested sample was transferred to Tryptic Soy Agar (TSA, Becton-Dickinson, Franklin Lakes, NJ, USA) and incubated at 37 °C for 48 h. […] Drug Solutions were made fresh on the day of the assay. All experiments were performed in triplicate.

[14] = tested on: clinical isolates of methicillin-resistant S. aureus (50–54) and methicillin-sensitive S. aureus (55–59); experiment: Broth dilution MIC/MBC, summary over clinical S. aureus isolates; type: cell-based, Staphylococcus aureus
Description: […]. Both MRSA and MSSA strains were derived from various human infections.
[…]. Five methicillin-resistant S. aureus strains were isolated from nose (n = 1), bronchoalveolar lavage (n = 1), sputum (n = 1), wound (n = 1), and blood (n = 1); five methicillin-susceptible S. aureus strains were isolated from throat (n = 1), bronchoalveolar lavage (n = 1), sputum (n = 1), abscess (n = 1), and blood (n = 1).
The identity of S. aureus isolates was confirmed with conventional methods and with Pastorex Staph-Plus latex agglutination kit (Bio-Rad, Marnes-la-Coquette, France) and verified applying the polymerase chain reaction (PCR) of S. aureus-specific region of the thermonuclease gene, nuc. Resistance to methicillin was first verified using cefoxitin disk (30 µg), and then, identified based on the presence of mecA gene. S. aureus ATCC®25923 (methicillin-susceptible) and S. aureus ATCC®43300 (MDR) were applied as the reference strains. Both the reference and clinical strains were stored at −80 °C, in Tryptic Soy Broth (TSB, Becton-Dickinson, Franklin Lakes, NJ, USA) supplemented with 15% glycerol.
as §5

## Cc1cc(S(=O)(=O)NC(=O)CCC2CCCCC2)c(SCc2cccc(C(F)(F)F)c2)cc1Cl [Compound 10, N-[4-Chloro-5-methyl-2-(3-trifluoromethylbenzylthio)benzenesulfonyl]-3-cyclohexylpropanamide]
[1]; E. f. ATCC 11420
  MBC/MIC: 8
[1]; Enterococcus faecalis, ATCC11420, E. faecalis ATCC 11420, read-out: MBC
  MBC: 64 µg/mL (≈ 120 µM)
[1]; Enterococcus faecalis, ATCC11420, E. faecalis ATCC 11420, read-out: MIC
  MIC: 8 µg/mL (≈ 15 µM)
[2]; E. c. ATCC 11229
  MBC/MIC: >1
[2]; Escherichia coli, ATCC11229, E. coli ATCC 11229, read-out: MBC
  MBC: > 128 µg/mL
[2]; Escherichia coli, ATCC11229, E. coli ATCC 11229, read-out: MIC
  MIC: 128 µg/mL (≈ 240 µM)
[3]; P. v. NCTC 4635
  MBC/MIC: >1
[3]; Proteus vulgaris, NCTC4635, P. vulgaris NCTC 4635, read-out: MBC
  MBC: > 128 µg/mL
[3]; Proteus vulgaris, NCTC4635, P. vulgaris NCTC 4635, read-out: MIC
  MIC: 128 µg/mL (≈ 240 µM)
[4]; P. a. ATCC 15442
  MBC/MIC: >1
[4]; Pseudomonas aeruginosa, ATCC15442, P. aeruginosa ATCC 15442, read-out: MBC
  MBC: > 128 µg/mL
[4]; Pseudomonas aeruginosa, ATCC15442, P. aeruginosa ATCC 15442, read-out: MIC
  MIC: 128 µg/mL (≈ 240 µM)
[5]; S. a. ATCC 43300
  MBC/MIC: 2
[5]; Staphylococcus aureus, S. aureus ATCC 43300, read-out: MBC
  MBC: 16 µg/mL (≈ 30 µM)
[5]; Staphylococcus aureus, S. aureus ATCC 43300, read-out: MIC
  MIC: 8 µg/mL (≈ 15 µM)
[6]; S. a. ATCC 6538
  MBC/MIC: 8
[6]; Staphylococcus aureus, S. aureus ATCC 6538, read-out: MBC
  MBC: 64 µg/mL (≈ 120 µM)
[6]; Staphylococcus aureus, S. aureus ATCC 6538, read-out: MIC
  MIC: 8 µg/mL (≈ 15 µM)
[7]; S. e. PCM 2118
  MBC/MIC: 1
[7]; S. epidermidis PCM 2118
  MBC: 8 µg/mL (≈ 15 µM)
[7]; Staphylococcus epidermidis, PCM2118, S. epidermidis PCM 2118, read-out: MBC
  MBC: 4 to 16 µg/mL (≈ 7.49 to 30 µM)
[7]; Staphylococcus epidermidis, PCM2118, S. epidermidis PCM 2118, read-out: MIC
  MIC: 8 µg/mL (≈ 15 µM)
[8]; C. a. ATCC 10231
  MFC/MIC: 2
[8]; Candida albicans, ATCC10231, C. albicans ATCC 10231, read-out: MFC
  MFC: 128 µg/mL (≈ 240 µM)
[8]; Candida albicans, ATCC10231, C. albicans ATCC 10231, read-out: MIC
  MIC: 64 µg/mL (≈ 120 µM)
[9]
  IC50: 95 µg/mL and 178 µM
[10]
  IC50: 78 ± 3 µM
[11]
  IC50: 94 ± 3 µM
[12]
  IC50: 81 ± 3 µM
[13]
  MBC: 8 to 64 µg/mL
  MIC: 8 µg/mL (≈ 15 µM)
[13]; read-out: MBC
  MBC: 8 to 64 µg/mL (≈ 15 to 120 µM)
[13]; read-out: MIC
  MIC: 8 µg/mL (≈ 15 µM)
[14]; Staphylococcus aureus, reference MRSA and MSSA strains as well as clinical isolates, read-out: MIC
  MIC: 4 to 8 µg/mL (≈ 7.49 to 15 µM)
[14]; Staphylococcus aureus, summary over ten clinical MRSA and MSSA isolates (Table 4), read-out: MBC
  MBC: > 128 µg/mL
[14]; Staphylococcus aureus, summary over ten clinical MRSA and MSSA isolates (Table 4), read-out: MIC
  MIC: 4 µg/mL (≈ 7.49 µM)
[14]; summary over ten clinical MRSA and MSSA isolates (Table 4)
  MIC: 4 to 8 µg/mL
